Measurements from patent US11857322B2, “Systems and methods for screening, diagnosing, and stratifying patients” (BlackThorn Therapeutics, Inc., priority 2018, dated 2024).

Key:
[1] = test system: patients with major depressive disorder; assay: Randomized, placebo controlled study of BTRX-246040 in patients with major depressive disorder; assay type: in vivo, human
From the text: The disclosed systems and methods were used in a randomized, placebo controlled study to identify patients that would respond to BTRX-246040 (LY2940094)—a nociceptin receptor antagonist (“NOPA”). Details about the chemical structure and other properties, uses and indications for BTRX-246040 are disclosed in J M Witkin et al., “Therapeutic Approaches for NOP Receptor Antagonists in Neurobehavioral Disorders: Clinical Studies in Majority Depressive Disorder and Alcohol Use Disorder with BTRX-246040,” the content of which is incorporated herein by reference in its entirety. Additionally, BTRX-246040, it's uses, indications, treatments, and forms are disclosed in U.S. Pat. No. 8,232,289 filed Nov. 10, 2010, titled “Spiropiperidine Compounds as ORL-1 Receptor Antagonists” and U.S. Publication NO. 2012/0214784 filed Aug. 23, 2012 titled “Spiropiperidine Compounds as ORL-1 Receptor Antagonists,” both of which are incorporated by reference in their entirety herein.
During the study disclosed herein, BTRX-246040 was administered once daily in patients with major depressive disorder without anhedonia. The study included 73 patients with 38 randomized to BTRX-246040 and 35 randomized to the placebo. The BTRX group had 17 responders and the placebo had 15 responders. The study included the following methods: • 28 days screening period • Eight (8 (weeks of active treatment • Off-drug follow up after one to two weeks • 104 MDD patients randomized • 1:1 ratio stratified by SHAPS≤4 and SHAPS>4 • dosage: 40 mg first week, then 80 mg onwards when tolerated
The following are known clinical questionnaires that were utilized at the indicated time points above: • Montgomery-Asberg Depression Scale (MADRS) • Hamilton Anxiety Scale (HAMA) • Hospital Anxiety and Depression Scale (HADS-A/HADS-D) • Snaith-Hamilton Pleasure Scale (SHAPS) • Dimensional Anhedonia Rating Scale (DARS) Tasks
The primary outcome of the study utilized was the clinical scale MADRS total at week 8. […]

[2] = test system: patients with mood and anxiety spectrum disorders; assay: FAST-MAS phase 2a study of CERC-501 in mood and anxiety spectrum disorders; assay type: in vivo, human
From the text: In another example, during a phase 2a study known as FAST-MAS was run to evaluate the Kappa Opioid Receptor (“KOR”) as a target for the treatment of mood and anxiety spectrum disorders. Additionally, CERC-501, it's uses, indications, treatments, and forms are disclosed in PCT Publication No. WO2018170492, filed Mar. 16, 2018, titled “Kappa Opioid Receptor Antagonists and Products and Methods Related Thereto” which is incorporated by reference herin in its entirety. During the trial, CERC-501 was tested to see whether it engaged key neural circuitry related to the hedonic response.
The FAST-MAS trial included a 30-day screening period, followed by 8 weeks of active treatment, follow up 12 weeks of off-drug follow up after baseline. The study included […] (of 163 enrolled) to include 45 on CERC-501 and 44 to the Placebo. The patients received […] daily for the 8 weeks of active treatment.
Patients were eligible for enrollment if they met both: • (i) DSM-IV TR critiera for at least one of: • MDD • Bipolar I or II Depressed • GAD • Social Phobia • Panic Disorder • PTSD; and • (ii) SHAPS score of ≥20
Furthermore, the primary outcome measures were the following measures included in Table 7 below. These include the fMRI, the SHAPS scale, and the PRT task as disclosed herein

| SMILES | number of responders ([1]; 38 patients randomized to BTRX-246040, once daily, 40 mg first week then 80 mg, 8 weeks, high responder = MADRS decrease by 50% from baseline) | group level treatment effects versus placebo ([1]; across all subjects, MADRS total at week 8, FIGS. 15A-15B) | change on the MADRS scale in patients identified by the classifiers as higher responders ([1]; after the 8-week study, subgroup chosen by classifiers from baseline data, FIGS. 16A-16B) | impact on patients identified using the Bayesian Decision Lists versus patients generally that received active treatment ([2]; subgroup identified by rule list, FIGS. 26A-26B) | outcome and treatment response ([2]; whole patient cohort, 8 weeks of active treatment) |
| --- | --- | --- | --- | --- | --- |
| Cc1nn(-c2ncccc2CO)cc1CN1CCC2(CC1)OCC(F)(F)c1cc(Cl)sc12 [BTRX-246040] | 17 | did as well as the placebo | greater than 5 point | – | – |
| Cc1cc(C)cc([C@@H]2CCCN2Cc2ccc(Oc3ccc(C(N)=O)cc3F)cc2)c1 [CERC-501] | – | – | – | greater on the patients identified using the Bayesian Decision Lists than the impact generally on the patients that received the active treatment | illustrated a difference in the outcome and treatment response |
